# Measurements: the supplement of paper PMC4862054
# What was measured:
# CAL-148 [1] = conditions: 72 h
# Method in brief: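 After 72 h on 384-well plates pre-loaded with compound in 5 µl medium, breast cancer cell lines seeded in 20 µl were assayed for viability with 2.5 µl CellTiter-Blue at 37 °C for 2 h, read at 560/590 nm. Each plate was quality-checked by Z'-factor and normalised to vehicle and a positive kill control. EC50 comes from the fitted percent-inhibition dose-response curve, censored at the top concentration, and rows scoring zero for drug sensitivity were left out.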
# BT-474 [2] = conditions: 72 h
# Method in brief: (§1)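 For viability and cell death testing, 384-well plates carried compound at 5 concentrations in 10-fold steps over a compound-specific 10,000-fold range, and breast cancer cell lines were seeded in 20 µl suspension. After 72 h incubation, cell death was read by CellTox Green fluorescence (485/520 nm) before viability was read by CellTiter-Glo luminescence. EC50 was fitted from the dose-response curves and censored at the top concentration. Normalisation on each plate was to 0.1 % DMSO and a positive kill control.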
# CAL-51 [3] = conditions: 72 h
# Method in brief: as §1
# MDA-MB-468 [4] = conditions: 72 h
# Method in brief: as §1
# DU-4475 [5] = assay: normalised viability (% of control), CellTiter-Blue; higher = more viable cells (about 100 = DMSO control); conditions: incubation time: 72 h
# Description: (§2)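 DSRT, CellTiter-Blue viability, 72 h incubation. Signal is normalised to DMSO and benzethonium chloride controls. Value is the normalised response at dose 9.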
# MDA-MB-453 [6] = assay: as above; conditions: incubation time: 72 h
# Description: as §2
# CAL-120 = assay: normalised response (% of control), CellTiter-Glo; higher = more viable cells (100 = DMSO, 0 = benzethonium chloride kill control); conditions: incubation time: 72 h
# Method in brief: (§3)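 In 384-well plates holding compound at 5 concentrations in 10-fold steps over a 10,000-fold range specific to each compound, breast cancer cell lines were seeded as 20 µl suspension and incubated 72 h. CellTox Green fluorescence was measured at 485/520 nm, after which CellTiter-Glo luminescence was measured following 10 min at room temperature. Plate signals were normalised to 0.1 % DMSO (100) and a positive kill control (0), and each value is the normalised signal at a single concentration.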
# Hs578T = assay: as above; conditions: incubation time: 72 h
# Method in brief: as §3
# HCC1143 = assay: as above; conditions: incubation time: 72 h
# Method in brief: as §3
# HDQ-P1 = assay: as above; conditions: incubation time: 72 h
# Method in brief: as §3
# DU-4475 [7] = assay: as above; conditions: incubation time: 72 h
# Method in brief: as §3
# BT-474 [8] = assay: as above; conditions: incubation time: 72 h
# Method in brief: as §3
# CAL-85-1 = assay: as above; conditions: incubation time: 72 h
# Method in brief: as §3
# SK-BR-3 = assay: as above; conditions: incubation time: 72 h
# Method in brief: as §3
# MFM-223 = assay: as above; conditions: incubation time: 72 h
# Method in brief: as §3
# CAL-51 [9] = assay: as above; conditions: incubation time: 72 h
# Method in brief: as §3
# MCF-10A = assay: as above; conditions: incubation time: 72 h
# Method in brief: as §3
# MDA-MB-453 [10] = assay: as above; conditions: incubation time: 72 h
# Method in brief: as §3
# CAL-148 [11] = assay: as above; conditions: incubation time: 72 h
# Method in brief: as §3
# BT-549 = assay: as above; conditions: incubation time: 72 h
# Method in brief: as §3
# HCC1937 = assay: as above; conditions: incubation time: 72 h
# Method in brief: as §3
# MDA-MB-231 = assay: as above; conditions: incubation time: 72 h
# Method in brief: as §3
# HCC1599 = assay: as above; conditions: incubation time: 72 h
# Method in brief: as §3
# MDA-MB-436 = assay: as above; conditions: incubation time: 72 h
# Method in brief: as §3
# MDA-MB-468 [12] = assay: as above; conditions: incubation time: 72 h
# Method in brief: as §3
SMILES,"EC50, CellTiter-Blue viability (CAL-148 [1]) [nM]","EC50, CellTiter-Glo (BT-474 [2]) [nM]","EC50, CellTiter-Glo (CAL-51 [3]) [nM]","EC50, CellTiter-Glo (MDA-MB-468 [4]) [nM]",normalised viability (DU-4475 [5]) [%],normalised viability (MDA-MB-453 [6]) [%],normalised response (CAL-120) [%],normalised response (Hs578T) [%],normalised response (HCC1143) [%],normalised response (HDQ-P1) [%],normalised response (DU-4475 [7]) [%],normalised response (BT-474 [8]) [%],normalised response (CAL-85-1) [%],normalised response (SK-BR-3) [%],normalised response (MFM-223) [%],normalised response (CAL-51 [9]) [%],normalised response (MCF-10A) [%],normalised response (MDA-MB-453 [10]) [%],normalised response (CAL-148 [11]) [%],normalised response (BT-549) [%],normalised response (HCC1937) [%],normalised response (MDA-MB-231) [%],normalised response (HCC1599) [%],normalised response (MDA-MB-436) [%],normalised response (MDA-MB-468 [12]) [%]
C=C(c1ccc(C(=O)O)cc1)c1cc2c(cc1C)C(C)(C)CCC2(C)C [Bexarotene],1730,,,,,,,,,,,,,,,,,,,,,,,,
O=P1(NCCCl)OCCCN1CCCl (stereo not drawn) [Ifosfamide],,> 10000,,,,,,,,,,,,,,,,,,,,,,,
NC(=O)Nc1cc(-c2cccc(F)c2)sc1C(=O)N[C@H]1CCCNC1 [AZD7762],,233,707,596,,,,,,,,,,,,,,,,,,,,,
N#CCNC(=O)c1ccc(-c2ccnc(Nc3ccc(N4CCOCC4)cc3)n2)cc1 [Momelotinib],,5780,,3480,,,,,,,,,,,,,,,,,,,,,
CS(=O)(=O)c1ccc(C2=C(c3ccccc3)C(=O)OC2)cc1 [Rofecoxib],,,> 10000,,,,,,,,,,,,,,,,,,,,,,
Cn1c(Nc2ccc(C(F)(F)F)cc2)nc2cc(Oc3ccnc(-c4ncc(C(F)(F)F)[nH]4)c3)ccc21 [RAF265] (1000 nM),,,,,42.3,89.2,67.2,78.2,94.2,47.2,71.8,79.6,40.7,92.1,48,52.1,86.6,95.8,99.9,68.7,63.7,83.5,73.7,67.7,50.8
Cc1ccc(-n2nc(C(C)(C)C)cc2NC(=O)Nc2ccc(OCCN3CCOCC3)c3ccccc23)cc1 [Doramapimod],,,,937,,,,,,,,,,,,,,,,,,,,,
CNCc1ccc(-c2[nH]c3cc(F)cc4c3c2CCNC4=O)cc1 [Rucaparib] (10000 nM),,,,,46.2,32.1,97.8,93,94.5,85.3,74,80.9,93.7,67.7,91,93.3,82.8,117,71.2,81.8,79.7,75.7,82.2,85.7,68.9
O=C(CCCCCCC(=O)Nc1ccc([C@H]2O[C@@H](CSc3nc(-c4ccccc4)c(-c4ccccc4)o3)C[C@@H](c3ccc(CO)cc3)O2)cc1)NO [Tubacin],,3650,4570,1730,,,,,,,,,,,,,,,,,,,,,
COc1cc2nccc(Oc3ccc(NC(=O)C4(C(=O)Nc5ccc(F)cc5)CC4)cc3)c2cc1OC [Cabozantinib] (1000 nM),,,,,108,37.1,95.2,89,95.3,94,102,83.8,107,107,64.6,111,94.6,95.4,104,104,95.4,79.2,102,101,87.2
CN[C@@H]1C[C@H]2O[C@@](C)([C@@H]1OC)n1c3ccccc3c3c4c(c5c6ccccc6n2c5c31)C(=O)N[C@H]4O [UCN-01] (10000 nM),,,,,2.14,2.09,7.18,2.67,8.19,2.74,3.81,4.43,0.55,2.06,24.1,2.83,0.69,5.51,9.37,0.77,7.74,1.54,13.7,7.46,1.36
CC1(C)NC(=O)N(c2ccc([N+](=O)[O-])c(C(F)(F)F)c2)C1=O [Nilutamide] (10000 nM),,,,,97.4,106,103,104,101,95.1,97.4,103,99.7,108,104,76.1,104,102,112,93.9,94.3,105,106,114,111
O=C1CCC(N2C(=O)c3ccccc3C2=O)C(=O)N1 (stereo not drawn) [Thalidomide] (10000 nM),,,,,97.5,102,100,96.8,94.7,98.2,93.3,94.6,93.5,106,100,84.7,98.8,97.2,92.4,96.7,98,94.2,101,96,91.6
